{"source": "patent US7648966B2", "about": "“Mannose-6-phosphonate compounds for the treatment of inflammatory diseases” (Pharmaxis Pty Limited, priority 2003, dated 2010)", "system": "MBP-specific T lymphocyte cell lines migrating across rat brain endothelial cell monolayer", "assay": "Inhibition of T-lymphocyte migration across rat brain endothelial cell layer (Transwell, 51Cr-labeled cells)", "assay_type": "cell-based, Lewis rats", "settings": "Rattus norvegicus, T-cell; 10 mM in upper well; 6 hours; compared with negative control; read-out: % inhibition (±SEM) of T cell migration", "experimental": "Preparation of Brain Endothelial Cells (ECs)\nVascular ECs were isolated from rat brain capillaries of 6 to 8 week old Lewis rats according to the method of Risau, W et al., 1990, J. Cell Biol. 110:1757-1766 (which is incorporated herein by reference). Colonies of ECs were purified from astroglial cells and pericytes using anti-Thy1.1-antibody and complement-mediated lysis to remove unwanted Thy1.1+ cells.\nThe EC colonies were grown, using conventional methods, in Dulbecco's Modified Eagle's Medium (DMEM)-high glucose, supplemented, with 20% fetal calf serum (FCS), glutamine, pyruvate, nonessential amino acids, HEPES buffer and antibiotics (kanamycin, amphotericin), and heparin (all from GIBCO). Cultures were supplemented with 150 μg/ml “endothelial growth supplement” from Collaborative Biomedical Products. Upon reaching confluence, EC cultures were washed with 0.2% EDTA in phosphate buffered saline (PBS), trypsinized (Trypsin-EDTA, 0.1% final concentration), washed and re-treated with anti-Thy1.1 antibody for 40 min, washed and incubated with complement sufficient to lyse all Thy1.1+ cells (Behringwerke, AG, Marburg, Germany) at room temperature.\nECs were then plated on Matrigel®-coated 6.5 mm Transwells, […] (Corning Costar Corporation, Cambridge, Mass.). Presence of ECs and confluence of the monolayer were checked by measuring the electrical resistance (World Precision Instruments, New Haven, U.S.A., model EVOM-G) and by staining with FITC-labeled phalloidin (Sigma).\nMyelin Basic Protein (MBP)-Specific T Cell Lines\nTo study the effect of agents of the present invention on T lymphocyte migration, MBP-specific T lymphocyte cell lines were generated according to the method of Ben-Nun et al., Europ. J. Immunol. 11:195-199 (1981); incorporated herein by reference) starting with lymphocytes from the LNs of Lewis rats that had been immunized with MBP in complete Freund's adjuvant (CFA). These cells were used for migration studies during the first 4 days of their propagation in IL-2-containing medium, following MBP restimulation in the presence of antigen-presenting cells (irradiated spleen or thymus cells from normal Lewis rats).\nThese stimulated T lymphocytes were radiolabeled with ^51Cr (Na^51Cr04, 37 MBq/ml, Amersham, UK) for 30 minutes at 37° C. with occasional agitation, they were then washed three times with DMEM and placed into the upper chamber of the Transwells at 5×10^5 cells in 100 μl of “migration medium.” Test and control substance were included in the upper wells at final concentrations of 0.1, 1 and 10 mM. Cell migration was assessed visually by light microscopy to gauge progress of the experiment. The experiment was terminated after 6 hours, whereupon the undersurface of the membrane filters were rinsed twice with 100 μl of ice-cold PBS-0.2% EDTA and combined with the medium of the lower chamber of the well. The combined material was counted for radioactivity in a gamma counter (Packard Auto-Gamma 5650 (Downer's Grove Ill., USA) gamma counter. Each “treatment” group was run in triplicate (test agent, control agent (glucose 6-phosphate) and no treatment).\nInhibition values are in comparison with the negative control.", "data": [{"molecule": "Cc1ccc(O[C@H]2O[C@H](CCP(=O)(O)O)[C@@H](O)[C@H](O)[C@@H]2O)c(C)c1", "values": [{"measurement": "inhibition at 10000 µM", "result": "90 ± 4", "unit": "%"}]}]}
